The values below come from patent US20250017840A1, “NOVEL SENOTHERAPY PEPTIDE AND COMPOSITION CONTAINING THE SAME” (AMOREPACIFIC CORPORATION, priority 2023, published 2025).

The test system of assay [1] is skin senescent cells (aged skin fibroblasts, DI model and RS model). As to the kind of experiment: Survival rate of aged cells (CCK-8), selective apoptosis efficacy on skin senescent cells. The assay is classed as cell-based, human. As to conditions: 100 μg/ml for 3 days, FIG. 2; for apoptosis effect of senescent cells (survival rate of aged cells, CCK-8): DI model or RS model skin fibroblasts; for selective apoptosis effect on the senescent cells versus normal cells: senescent versus normal skin fibroblasts. As to the method: Specifically, in the case of the DI model, the skin fibroblasts (Normal human dermal fibroblasts, Lonza, Switzerland) were cultured in DMEM Medium (Lonza, Switzerland) containing 10% FBS, and then were inoculated into a chamber slide (Thermo Fisher Scientific, USA) at 1×10^3 cells per well and cultured in a CO2 incubator of 5% concentration at 37° C. for 24 hours. The cultured wells were treated with each of Doxorubicin-hydrochloride (Sigma) and IGF-1 (Sigma) in a concentration of 100 ng/ml for 4 days to induce early senescence of the skin fibroblasts. As a control group, the normal skin fibroblasts that were not treated with Dox or IGF-1 were prepared. Thereafter, for the immunofluorescence stain, the cell culture solution was washed with PBS three times and fixed in 4% paraformaldehyde for 30 minutes. Then, the skin fibroblast sample was washed with PBS containing 0.2% Triton X-100 three times, added to PBS containing 3% BSA, and left for 1 hour. Next, the sample was incubated in 1% BSA containing rabbit polyclonal anti-FOXO4 antibody (SAB4501887, Sigma) (1:500 dilution) at 4° C. overnight to allow the antibody to bind to an antigen contained in the skin fibroblasts. Thereafter, the Sample was washed with the PBS three times, incubated with Alexa Fluor®488-conjugated goat polyclonal secondary antibody (A32731, ThermoFisher Scientific) (1:1000 dilution) against rabbit IgG-H&L at a room temperature for 1 hour, and then washed with the PBS three times. Next, a drop of the mounting solution containing DAPI was placed on a microscope slide glass and fixed by raising the coverslip itself. The fixed sample was observed by a confocal microscope (LSM 980, Zeiss, Germany).
In the case of the RS model, the aged skin fibroblasts were prepared by continuously culturing skin fibroblasts (Normal human dermal fibroblasts, Lonza, Switzerland) in DMEM Medium (Lonza, Switzerland) containing 10% FBS over 30 to 40 times. For the immunofluorescence staining test, each of the aged skin fibroblasts (p41) and the normal skin fibroblasts was inoculated into a chamber slide (Thermo Fisher Scientific, USA) at 1×10^3 cells per well, and cultured in a CO2 incubator of 5% concentration at 37° C. for 48 hours. Thereafter, the cell culture solution was washed with PBS three times and fixed in 4% paraformaldehyde for 30 minutes. Next, the skin fibroblast sample was washed with PBS containing 0.2% Triton X-100 three times, added to PBS containing 3% BSA, and left for 1 hour. Then, the sample was incubated in 1% BSA containing a rabbit polyclonal anti-FOXO4 antibody (SAB4501887, Sigma) (1:500 dilution) at 4° C. overnight to allow the antibody to bind to an antigen contained in the skin fibroblasts. Thereafter, the sample was washed with the PBS three times, incubated with Alexa Fluor®488-conjugated goat polyclonal secondary antibody (A32731, ThermoFisher Scientific) (1:1000 dilution) against rabbit IgG-H&L at a room temperature for 1 hour, and then was washed with the PBS three times. […]
As in Test Example 1, after the skin fibroblasts (DI model) that induced senescence by treating with each of Doxorubicin and IGF-1 in a concentration of 100 ng/ml for 4 days or the fibroblasts (RS model) aged by culturing the skin fibroblasts up to passage 40 were treated with a peptide (21a-D) consisting of the amino acid sequence of […] […] ([…]) in each concentration of 100 μg/ml for 3 days, a survival rate of the aged cells was measured. […]

The target of the next assay is T1, p53 and FOXO4 (Homo sapiens, UniProt P04637).
T1 construct: endogenous in cells; host or cells: skin fibroblasts made senescent with doxorubicin and IGF-1 (DI model)
T1 sequence (P04637 whole entry): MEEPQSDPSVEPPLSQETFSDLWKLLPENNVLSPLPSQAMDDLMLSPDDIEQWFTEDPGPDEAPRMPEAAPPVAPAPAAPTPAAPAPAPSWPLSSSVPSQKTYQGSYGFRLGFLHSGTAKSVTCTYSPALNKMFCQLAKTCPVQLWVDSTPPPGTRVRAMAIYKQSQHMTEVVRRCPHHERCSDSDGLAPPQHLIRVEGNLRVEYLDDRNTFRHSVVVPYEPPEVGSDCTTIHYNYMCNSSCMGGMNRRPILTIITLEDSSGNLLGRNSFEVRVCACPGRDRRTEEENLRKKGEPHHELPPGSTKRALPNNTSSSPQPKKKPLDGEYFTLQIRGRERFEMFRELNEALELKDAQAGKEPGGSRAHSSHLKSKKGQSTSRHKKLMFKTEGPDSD
Briefly: Immunofluorescence observation of cytoplasmic movement of p53. It is filed as cell-based. The conditions noted are these: DI-treated aged skin fibroblasts; 100 ug/ml for 3 days; FIG. 4. Here is the method: It was confirmed through the immunofluorescence (IF) stain experiment whether or not this phenomenon was observed when the skin senescent cells were treated with the peptide having the amino acid sequence of SEQ ID NO: 1 according to an embodiment of the present invention. The aged skin fibroblasts treated with DI (Doxorubicin/IGF-1) were treated with the peptide 21a-D in the same manner as in Test Example 2, and then the expression and cytoplasmic movement of FOXO4 and p53 were observed.
Specifically, the skin fibroblasts were inoculated into a chamber slide (Thermo Fisher Scientific, USA) at 1×10^3 cells per well and cultured in a 5% CO2 incubator at 37° C. for 24 hours. The cultured wells were treated with each of Dox and IGF-1 in a concentration of 100 ng/ml for 4 days to induce early senescence of the skin fibroblasts, and then treated with the peptide 21a-D in a concentration of 100 ug/ml for 3 days followed by being further cultured. For immunofluorescence stain, the cell culture solution was washed with PBS three times and fixed by treating it with ice-cold methanol at −20° C. for 10 minutes. Next, it was added into PBS containing 3% BSA and left for 1 hour. […]

In another assay the test system is MMP-1. Briefly: MMP-1 expression in senescent cells by qPCR. It is filed as cell-based, human. The conditions noted are these: DI model senescent cells, treated as in Test Example 2; FIG. 5. Here is the method: After treating the DI model with the peptide (21a-D) consisting of the amino acid sequence of […] (SEQ ID NO: 1) and the peptide (FOXO4-DRI) consisting of the amino acid sequence of […] (SEQ ID NO: 4) in the same manner as in Test Example 2 above, an ability to suppress the expression of MMP-1 in the senescent cells was identified. After recovering the cultured cells, total RNA was isolated using a TRIzol™ solution (TRIzol™ Reagent, Invitrogen) extraction method. 1 μg of the isolated RNA was synthesized into cDNA using reverse transcriptase (RevertAid Firist strand cDNA synthesis kit, Thermofisher), and then diluted to a final concentration of 200 μl. In order to perform PCR, a mixing kit was prepared by mixing […] (Hs00899658_m1, ThermoFisher Scientific), 10 μl of Taqman universal master mix II with UNG (Applied Biosystems), and 5 μl of distilled water to allow the mixture to be diluted to 16 μl. 16 μl of the mixing kit and 4 μl of cDNA were mixed to perform qPCR under the following reaction conditions. The reaction conditions were 95° C., initialization reaction for 10 minutes, denaturation at 95° C. for 15 seconds, annealing at 60° C. for 60 seconds, and extension reaction at 50° C. for 20 seconds, which were set to be performed in a PCR device (7500 Fast Real-time PCR system, Applied Biosystems) with repetition of 40 times.
(In general: Quantitative PCR measures a nucleic acid by following its amplification.)

For assay [2], the system named is skin senescent cells (DI model and RS model). Briefly: SA-β-gal stain and microscopic observation of apoptosis efficacy on skin senescent cells. It is filed as cell-based, human. As to conditions: treated as in Test Example 2, FIGS. 3A and 3B. Here is the method: In the same manner as that of Test Example 2, after the DI model and the RS model were treated with a peptide (21a-D) consisting of the amino acid sequence of […] (SEQ ID NO: 1) and a peptide (FOXO4-DRI) consisting of the amino acid sequence of […] (SEQ ID NO: 4), SA-3-gal (senescent associated-β-galactosidase) stain and microscopic observation were performed to visually confirm an apoptosis efficacy of the skin senescent cells. The SA-3-Gal stain was performed according to the protocol using the Senescence Cell Histochemical Staining Kit (CS0030, Sigma, USA), and after 24 hours of the staining, it was confirmed whether or not the cells were stained through an optical microscope.

For the sequence AYSQNGWANRRPRRRQRRKKRG [22a-D], the “apoptosis effect of senescent cells (survival rate of aged cells, CCK-8)” value (from here on “apoptosis effect of senescent cells”) in assay [1] is “minimal”.
Consider AYSQNGWANRRRRGGRRRRRR [21a-D], for which, in assay [1], the “selective apoptosis effect on the senescent cells versus normal cells” value is listed as “selective apoptosis of only skin senescent cells was induced”. For the same sequence, in the assay with p53 and FOXO4, the “binding of p53 and FOXO4 in the nucleus” value is “suppressed the binding of p53 and FOXO4 in the nucleus”; the “cytoplasmic movement of p53 (immunofluorescence)” value is “p53 moved to a cytoplasm in the nucleus”. Besides, the “expression of MMP-1 (qPCR, corrected for GAPDH)” value in the assay on MMP-1 is “suppressed”. The “number of senescent cells (SA-β-gal stain, microscopic observation)” value in assay [2] is “significantly reduced”.
For the sequence “LTLRKEPASEIAQSILEAYSQNGWANRRSGGKRPPPRRRQRRKKRG [FOXO4-DRI, reference compound]”, in assay [1], the “apoptosis effect of senescent cells” value is given as “apoptosis effect had on the senescent cells as well as even on the normal cells” and the “selective apoptosis effect on the senescent cells versus normal cells” value is on record as “weak”.
As to QRKKRRQRRRPRRNAWGNQSYA [22a-L], in assay [1], the “apoptosis effect of senescent cells” value was “minimal”.
